Columns and labels:
[1] = compound: CC1=C(C(=NN1)C)CC2=C(C3=C(S2)N(C(=O)N(C3=O)C)CC(C)C)C(=O)N4C[C@@H](CO4)O; experiment: relative viability (nuclei count vs DMSO), 5 days (fraction); higher = more cells survive
Method in brief: (§1)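 Cells of lung cancer lines were placed in 1536-well plates and kept overnight at 37 °C. Pinning then delivered five library-drug doses (not always all listed), spaced by √10, onto plates anchored with vehicle, and the cells were left 5 days without changing medium. One step fixed, permeabilised and stained them with Hoechst, and MetaXpress counted nuclei in 4× images. Viability, as a median over plates, is treated-well nuclei divided by vehicle-well nuclei, with acceptance only at control CV below 25% and at least one doubling.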

IDH-C35 = compound: Cc1ccccc1C(C(=O)NC1CCCCC1)N(C(=O)Cn1ccnc1C)c1cccc(F)c1 [IDH-C35]; experiment: as above
Method in brief: as §1

Cell Line | relative viability ([1]; 0.0025 µM) | relative viability ([1]; 0.007906 µM) | relative viability ([1]; 0.025 µM) | relative viability ([1]; 0.07906 µM) | relative viability ([1]; 0.25 µM) | relative viability (IDH-C35; 0.08 µM) | relative viability (IDH-C35; 0.253 µM) | relative viability (IDH-C35; 0.8 µM) | relative viability (IDH-C35; 2.53 µM) | relative viability (IDH-C35; 8 µM)
201T | 1.04 | 0.983 | 0.982 | 0.96 | 0.988 | 0.985 | 0.983 | 1.01 | 1 | 0.958
A549 | 1.04 | 1.11 | 0.931 | 0.953 | 1.04 | 1 | 0.966 | 0.956 | 0.918 | 0.974
A-427 | 1.04 | 1.1 | 0.996 | 1.05 | 1.1 | 1.06 | 1.01 | 0.926 | 0.991 | 1.03
ABC-1 | 0.978 | 0.921 | 0.714 | 0.994 | 0.902 | 0.953 | 0.938 | 0.91 | 1.03 | 0.992
BEN | 0.885 | 0.949 | 0.735 | 0.788 | 0.865 | 0.964 | 0.97 | 0.904 | 0.972 | 1.01
CAL-12T | 1.03 | 1.03 | 0.958 | 1.12 | 1.13 | 0.982 | 1.04 | 0.982 | 1.05 | 0.979
COR-L23 | 0.965 | 1.08 | 0.919 | 0.933 | 0.976 | 1.1 | 1.08 | 1.01 | 0.995 | 0.978
COR-L 105 | 0.952 | 0.976 | 0.897 | 0.897 | 1.02 | 0.897 | 0.921 | 0.926 | 0.863 | 0.91
Calu-6 | 1.04 | 1.01 | 0.982 | 1.03 | 1.03 | 1.05 | 0.968 | 1.03 | 0.997 | 0.937
ChaGo-K-1 | 0.989 | 0.98 | 0.901 | 0.969 | 1.06 | 0.994 | 0.941 | 0.993 | 0.966 | 1.02
EBC-1 | 1.01 | 1.07 | 0.868 | 1.08 | 1.05 | 1.05 | 1.01 | 0.992 | 0.981 | 0.96
EKVX | 1.08 | 1.03 | 0.952 | 0.883 | 0.989 | 0.991 | 0.991 | 0.922 | 0.861 | 0.997
EMC-BAC-2 | 1.07 | 1.11 | 0.898 | 0.995 | 1.05 | 0.962 | 0.988 | 1 | 0.987 | 1.03
EPLC-272H | 1.02 | 0.906 | 0.968 | 0.974 | 1.01 | 0.935 | 1.04 | 0.898 | 0.76 | 0.882
H3255 | 1.01 | 0.925 | 0.866 | 0.94 | 1.1 | 0.955 | 1 | 0.988 | 0.978 | 1.11
HARA | 1.03 | 1.05 | 1.01 | 1.02 | 1 | 1 | 0.949 | 0.915 | 1.03 | 0.931
HCC-15 | 1.04 | 1.03 | 1.01 | 1.04 | 1.12 | 1 | 0.97 | 0.956 | – | 0.925

Cell Line | relative viability ([1]; 0.0025 µM) | relative viability ([1]; 0.007906 µM) | relative viability ([1]; 0.025 µM) | relative viability ([1]; 0.07906 µM) | relative viability ([1]; 0.25 µM) | relative viability (IDH-C35; 0.08 µM) | relative viability (IDH-C35; 0.253 µM) | relative viability (IDH-C35; 0.8 µM) | relative viability (IDH-C35; 2.53 µM) | relative viability (IDH-C35; 8 µM)
HCC-44 | 1.01 | 1.01 | 0.992 | 0.931 | 1.05 | 0.949 | 0.947 | 0.971 | 0.998 | 0.942
HCC-78 | 1.08 | 1.14 | 0.845 | 0.91 | 0.832 | 0.925 | 0.979 | 0.896 | 0.998 | 0.928
HCC-366 | 0.986 | 1.03 | 1.03 | 0.988 | 1.04 | 1.04 | 1.04 | 0.97 | 0.935 | 0.934
HCC-827 | 0.904 | 1.08 | 1.06 | 1.04 | 1.06 | 1.06 | 0.934 | 1.04 | 0.991 | 1.02
HOP-62 | 0.962 | 0.976 | 0.953 | 0.977 | 1.17 | 1.03 | 1.03 | 0.957 | 0.81 | 0.964
IA-LM | 0.945 | 0.998 | 0.96 | 1.02 | 1.07 | 0.947 | 1.02 | 0.858 | 0.887 | 0.999
LC-2-ad | 0.982 | 0.93 | 0.956 | 1.04 | 1.04 | 0.993 | 1 | 0.966 | 0.701 | 0.898
LCLC-97TM1 | 1.05 | 1.13 | 0.98 | 0.957 | 1.02 | 0.807 | 1.03 | 0.936 | – | 0.91
LCLC-103H | 1.1 | 1.06 | 1 | 0.919 | 0.973 | 0.968 | 0.957 | 0.933 | 1.02 | 0.913
LK-2 | 1 | 1.03 | 0.818 | 0.804 | 0.898 | 0.881 | 0.995 | 0.996 | 0.998 | 0.943
LOU-NH91 | 1 | 0.989 | 1.01 | 1.12 | 1.03 | 0.945 | 0.986 | 0.987 | 0.917 | 0.96
LU99A | 0.968 | 0.995 | 0.887 | 1.03 | 0.893 | 1.04 | 0.992 | 0.895 | 0.919 | 0.964
LXF-289 | 1.02 | 1.02 | 0.975 | 0.971 | 1.02 | 1.02 | 1 | 1.02 | 0.99 | 0.997
NCI-H23 | 1.01 | 1.05 | 0.867 | 0.975 | 1.09 | 1 | 1.04 | 0.95 | 0.806 | 0.859
NCI-H322M | 0.98 | 1.02 | 0.948 | 1.02 | 0.919 | 0.92 | 0.973 | 0.933 | 0.963 | 1
NCI-H358 | 1.09 | 0.992 | 1.01 | 1.02 | 0.983 | 0.942 | 0.984 | 0.807 | 0.942 | 0.919
NCI-H441 | 1 | 1.05 | 0.901 | 1.08 | 1.13 | 1.11 | 0.892 | 1 | 0.982 | 0.909
